Experimental data from patent publication US11345666B2, “Phenyl and pyridinyl substituted imidazoles as modulators of RORγT” (Janssen Pharmaceutica NV, priority 2018, dated 2022).

Biological target: human RORγt ligand binding domain (RORγt LBD) (Homo sapiens (Human), UniProt P51449)
Experiment: RORγt ThermoFluor assay
Method in brief: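 Thermal shift of His-tagged human RORγt LBD (0.065 mg/mL) with 60 μM 1,8-ANS in 100 mM Hepes pH 7.0, 10 mM NaCl, 2.5 mM GSH, 0.002% Tween-20, heated at 1° C./min. Compounds in 1:2 series from a 10 mM DMSO stock; KD estimated from ΔTm using protein unfolding thermodynamics.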

Sequence of human RORγt ligand binding domain (RORγt LBD) (P51449 other isoform, or with tags, fused parts or gaps): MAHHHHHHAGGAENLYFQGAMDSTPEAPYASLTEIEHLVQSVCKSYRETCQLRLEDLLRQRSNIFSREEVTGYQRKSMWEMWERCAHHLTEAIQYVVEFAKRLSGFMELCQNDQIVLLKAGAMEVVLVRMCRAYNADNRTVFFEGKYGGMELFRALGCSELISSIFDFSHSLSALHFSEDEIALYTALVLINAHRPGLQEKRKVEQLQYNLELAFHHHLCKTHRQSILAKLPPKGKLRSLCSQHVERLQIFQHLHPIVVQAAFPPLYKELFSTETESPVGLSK

Kd	SMILES
2.4 nM	CCc1nc(C(=O)NC[C@H]2CC[C@H](S(C)(=O)=O)CC2)c(Cl)n1-c1ncc(CC(C)(C)C(F)(F)F)cc1OC(F)F [Example 2, 5-Chloro-1-(3-(difluoromethoxy)-5-(3,3,3-trifluoro-2,2-dimethylpropyl)pyridin-2-yl)-2-ethyl-N-((4-(methylsulfonyl)cyclohexyl)methyl)-1H-imidazole-4-carboxamide]
3.5 nM	CCc1nc(C(=O)NC[C@H]2CC[C@H](S(C)(=O)=O)CC2)c(Cl)n1-c1ccc(N[C@H](C)C(F)(F)F)cc1OC [Example 3, 5-Chloro-2-ethyl-1-(2-methoxy-4-(((R)-1,1,1-trifluoropropan-2-yl)amino)phenyl)-N-(((1r,4R)-4-(methylsulfonyl)cyclohexyl)methyl)-1H-imidazole-4-carboxamide]
12 nM	CCc1nc(C(=O)NC[C@H]2CC[C@H](S(C)(=O)=O)CC2)c(F)n1-c1ccc(N[C@H](C)C(F)(F)F)cc1OC [Example 12, 2-Ethyl-5-fluoro-1-(2-methoxy-4-(((R)-1,1,1-trifluoropropan-2-yl)amino)phenyl)-N-(((1r,4R)-4-(methylsulfonyl)cyclohexyl)methyl)-1H-imidazole-4-carboxamide]
20 nM	CCc1nc(C(=O)NC[C@H]2CC[C@H](S(C)(=O)=O)CC2)c(Cl)n1-c1ccc(CCC(F)(F)F)cc1F [Example 22, 5-Chloro-2-ethyl-1-(2-fluoro-4-(3,3,3-trifluoropropyl)phenyl)-N-(((1r,4r)-4-(methylsulfonyl)cyclohexyl)methyl)-1H-imidazole-4-carboxamide]
0.76 nM	[2H]C([2H])([2H])Oc1cc(CC(C)(C)C(F)(F)F)ccc1-n1c(CC)nc(C(=O)NC[C@H]2CC[C@H](S(C)(=O)=O)CC2)c1C#N [Example 27, 5-Cyano-2-ethyl-1-(2-(methoxy-d3)-4-(3,3,3-trifluoro-2,2-dimethylpropyl)phenyl)-N-(((1r,4r)-4-(methylsulfonyl)cyclohexyl)methyl)-1H-imidazole-4-carboxamide]
1.6 nM	CCc1nc(C(=O)NC[C@H]2CC[C@H](S(C)(=O)=O)CC2)c(C#N)n1-c1ccc(CC(C)(C)C(F)(F)F)cc1OC(F)F [Example 36, 5-Cyano-1-(2-(difluoromethoxy)-4-(3,3,3-trifluoro-2,2-dimethylpropyl)phenyl)-2-ethyl-N-(((1r,4r)-4-(methylsulfonyl)cyclohexyl)methyl)-1H-imidazole-4-carboxamide]
2.6 nM	CCc1nc(C(=O)NC[C@]2(O)CC[C@@H](S(C)(=O)=O)CC2)c(Cl)n1-c1c(F)cc(CC(C)C)cc1F [Example 83, 5-Chloro-1-(2,6-difluoro-4-isobutylphenyl)-2-ethyl-N-(((1s,4s)-1-hydroxy-4-(methylsulfonyl)cyclohexyl)methyl)-1H-imidazole-4-carboxamide]
2.1 nM	CCc1nc(C(=O)NC[C@]2(O)CC[C@@H](S(C)(=O)=O)CC2)c(Cl)n1-c1ccc(CC(C(F)(F)F)C(F)(F)F)cc1F [Example 100, 5-Chloro-2-ethyl-1-(2-fluoro-4-(3,3,3-trifluoro-2-(trifluoromethyl)propyl)phenyl)-N-(((1s,4s)-1-hydroxy-4-(methylsulfonyl)cyclohexyl)methyl)-1H-imidazole-4-carboxamide]
6.5 nM	CCc1nc(C(=O)NC[C@]2(O)CC[C@@H](S(C)(=O)=O)CC2)c(C)n1-c1ccc(CC(C(F)(F)F)C(F)(F)F)cc1F [Example 109, 2-Ethyl-1-(2-fluoro-4-(3,3,3-trifluoro-2-(trifluoromethyl)propyl)phenyl)-N-(((1s,4s)-1-hydroxy-4-(methylsulfonyl)cyclohexyl)methyl)-5-methyl-1H-imidazole-4-carboxamide]
24 nM	CCc1nc(C(=O)NC[C@]2(O)CC[C@@H](S(C)(=O)=O)CC2)c(C#N)n1-c1ccc(CC(C)(C)C(F)(F)F)cc1OC(F)(F)F [Example 111, 5-Cyano-2-ethyl-N-(((1s,4s)-1-hydroxy-4-(methylsulfonyl)cyclohexyl)methyl)-1-(4-(3,3,3-trifluoro-2,2-dimethylpropyl)-2-(trifluoromethoxy)phenyl)-1H-imidazole-4-carboxamide]

SMILES	Kd
CCc1nc(C(=O)NC[C@H]2CC[C@H](S(C)(=O)=O)CC2)c(Cl)n1-c1ccc(CC(C)C(F)(F)F)cc1OC (single isomer, unassigned) [Example 6, 5-Chloro-2-ethyl-1-((1S*)-2-methoxy-4-(3,3,3-trifluoro-2-methylpropyl)phenyl)-N-(((1r,4S)-4-(methylsulfonyl)cyclohexyl)methyl)-1H-imidazole-4-carboxamide]	0.17 nM
CCc1nc(C(=O)NC[C@H]2CC[C@H](S(C)(=O)=O)CC2)c(C)n1-c1ccc(CC(C)C(F)(F)F)cc1OC (single isomer, unassigned) [Example 7]	1 nM
